Molecules are shown by their SMILES.

This data set is described as follows: gradient 5% acetonitrile 3 min, to 50% in 2 min, to 85% in 15 min, held 3 min, 100 µL/min. The conditions noted are these: column: Zorbax Extend-C18 2.1 x 50 mm; eluents: water / acetonitrile, 0.1% formic acid. Summed up: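 Retention time was recorded from adduct peaks, which were picked computationally and each inspected manually. Pure standards ran in mixtures of ~100 molecules on HPLC coupled to a quadrupole time-of-flight mass spectrometer, in positive and negative ionization mode, through a Zorbax Extend-C18 column (2.1 × 50 mm, 1.8 μm) at 100 μL/min. Eluents were water and acetonitrile, each with 0.1% formic acid.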
The compound `O=C(NCc1nc2ccccc2n1CC(=O)N1CCCC1)c1ccco1` displayed an RP-LC retention time of 587 s.
In the case of `CCCN(CC1CCOC1)C(=O)NCCc1ccccc1` (stereo not given), the RP-LC retention time is 791 s.
In turn, `CN(C)CCNC(=O)c1cccc2[nH]c(-c3ccncc3)nc12` gave an RP-LC retention time of 556 s.
On to `COc1ccc(CC(=O)NCC2CCC(c3nc4ccccc4n3C)CC2)cc1` (stereo not given), for which the RP-LC retention time worked out at 579 s.
Next, `CCOC(=O)c1ccc(NC(=O)Cn2c(=O)nc(N3CCC(C)CC3)c3ccccc32)cc1`: 872 s; `C[C@H]1CCC/C=C/[C@@H]2C[C@H](O)C[C@H]2[C@H](O)/C=C/C(=O)O1`: 782 s; `Cc1cc(OCC(=O)N[C@H](C(=O)O)c2ccccc2)c2c3c(c(=O)oc2c1)CCCC3`: 879 s.
On to `O=C(NC1CCN(c2cc(-c3ccc(F)cc3)[nH]n2)C1)c1ccc2c(c1)OCO2` (stereo not given), for which the RP-LC retention time was 695 s.
With `O=C(Cn1c(=O)c2cccn2c2ccc(F)cc21)Nc1ccccc1F` the figure was 858 s.
With `CCn1nc(C(=O)NCCn2nc(C)cc2C)ccc1=O`, the RP-LC retention time was found to be 578 s.
`Cc1nn(C(C)C(=O)N2CCC(N3CCCCC3)CC2)c(=O)c2nn(-c3ccccc3)c(C)c12` (stereo not given) had an RP-LC retention time of 622 s.
As to `CCOc1ccc(CCNC(=O)C2CCCN(S(=O)(=O)N3CCC(C)CC3)C2)cc1` (stereo not given), the RP-LC retention time came to 1010 s.
In turn, `CCC1CN2C=NC(N3CCN(C(=O)c4ccc(C)s4)CC3)=CC2=N1` (stereo not given) returned an RP-LC retention time of 632 s.
Compound `CCOc1ccccc1NC(=O)N1CCC(n2cnc3c(Cl)cccc3c2=O)CC1` gave an RP-LC retention time of 889 s.
Turning to `Cc1cccc(N2CCN(S(=O)(=O)c3ccc(-c4c(C)noc4C)cc3)CC2)c1C`, the RP-LC retention time amounted to 1230 s.
The compound `Cc1ccccc1-c1noc(-c2cccnc2N2CCN(c3ccccc3)CC2)n1` showed an RP-LC retention time of 1410 s.
In the case of `COCCC1CCN(C(=O)CCc2c(C)nn(C)c2C)CC1`, the RP-LC retention time turned out to be 616 s.
`CCc1noc(NC(C)=O)c1-c1ccc(C)c(S(=O)(=O)N2CCN(c3ccccc3)CC2)c1` returned an RP-LC retention time of 964 s.
`CCCC(=O)Nc1ccc2c(c1)N(C(=O)c1ccco1)CCC2` registered an RP-LC retention time of 604 s.
Next, `CCOC(=O)c1ccc(NC(=O)N2CC=C(c3cn(CC)c4ncccc34)CC2)cc1`: 606 s; `COc1cccc(S(=O)(=O)N2CCC(c3cc(N)on3)CC2)c1`: 756 s; `O=C(Cn1ncc2c(N3CCN(c4ccccn4)CC3)ncnc21)Nc1cccc(F)c1`: 563 s.
As to `Cn1c(=O)n(C)c2cc(CNc3ccc4[nH]c(=O)[nH]c4c3)ccc21`, the RP-LC retention time came to 561 s.
As to `CCCNc1cc(N2CCC(CCC(=O)NCc3cccc(F)c3)CC2)ncn1`, the RP-LC retention time came to 696 s.
`CC(C)S(=O)(=O)c1ccc(CC(=O)Nc2cc(-c3cccs3)nn2CCO)cc1` returned an RP-LC retention time of 701 s.
For `CCn1nccc1-c1csc(S(=O)(=O)NCc2cccs2)c1`, the RP-LC retention time amounted to 866 s.
For the compound `O=C(c1cc(Cl)ccc1F)N1CCC(c2nc(C3CC3)n[nH]2)CC1`, the RP-LC retention time was 611 s.
In turn, `COc1ccc(Cl)cc1S(=O)(=O)c1cnc(N2CCC(C)CC2)nc1N` came in with an RP-LC retention time of 1040 s.
Consider `Cc1ccc(NS(=O)(=O)c2cc3c(s2)CCN(C(=O)C2CC2)C3)cc1C`, for which the RP-LC retention time was found to be 861 s.
`COc1ccc(NC(=O)C2=Cc3cc(OC)ccc3OC=C2)cc1` registered an RP-LC retention time of 976 s.
With `COc1ccccc1NC(=O)N1CCCC1c1nc(-c2ccccc2OC)no1` (stereo not given), the RP-LC retention time was determined as 894 s.
With `CCCNC(=O)N(C1CCOCC1)C1CCN(C(=O)c2ccc(C)s2)CC1` the figure was 747 s; with `O=C(NCC(O)(c1ccccc1)C(F)(F)F)C(=O)Nc1ccon1` (stereo not given), 738 s; with `CCOc1ccccc1CNC(=O)CN1CCN(Cc2ccccc2F)C1=O`, 854 s.
With `CN(CCc1noc(-c2ccc(C(=O)N3CCN(c4ccccn4)CC3)cc2)n1)C(=O)c1ccccc1` the figure was 625 s.
`CCOC(=O)c1ccc(NC(=O)N2CCCC2c2cc(C)no2)cc1` (stereo not given) displayed an RP-LC retention time of 809 s.
With `Cc1ccc(NC(=O)CN2C(=O)C3CCCCN3c3ccc(S(=O)(=O)N(C)C)cc32)cc1` (stereo not given), the RP-LC retention time turned out to be 943 s.
With `CC(=O)Nc1ccc(S(=O)(=O)N2CCc3c(c(-c4nnc(-c5ccccc5)o4)nn3C)C2)cc1`, the RP-LC retention time was 775 s.
Compound `CN(C)c1ccc(-c2nc(-c3cn(Cc4cccc(F)c4)nn3)no2)cc1` displayed an RP-LC retention time of 1020 s.
For the compound `Cc1nn2c(CNS(=O)(=O)c3cccc(Cl)c3C)c(-c3ccccc3)nc2s1`, the RP-LC retention time amounted to 942 s.
For the compound `CCN1CCN(CCCNC(=O)CC2CCN(C(=O)c3[nH]c(C)c(C)c3C)CC2)CC1`, the RP-LC retention time came to 578 s.
Regarding `CSc1cccc(NC(=O)C2CCCN(C(=O)Cc3cccc4ccccc34)C2)c1` (stereo not given), the RP-LC retention time is 1040 s.
Next, `Cc1csc(NC(=O)C2CCN(S(=O)(=O)c3cc(-c4noc(C)n4)cs3)CC2)n1`: 829 s; `O=C(Nc1nccs1)C1CCCN(S(=O)(=O)c2c[nH]c(C(=O)N3CCCC3)c2)C1` (stereo not given): 688 s; `CCN1CCn2cc(S(=O)(=O)Nc3cc(C)cc(C)c3)cc2C1=O`: 729 s.
Regarding `Cc1cc2[nH]c(C(=O)Nc3cc(Cl)ccc3F)c(CN3CCOCC3)c2s1`, the RP-LC retention time was 892 s.
For the compound `Cc1ccc2nc(-c3ccccc3O)c(Nc3ccc(Cl)cc3)n2c1`, the RP-LC retention time is 781 s.
Turning to `COc1ccc(CNC(=O)c2cn3ccc(C)cc3n2)cc1`, the RP-LC retention time was 545 s.
For the compound `O=C(CCC1CCCN(S(=O)(=O)c2ccccc2F)C1)NCc1cc(F)ccc1F` (stereo not given), the RP-LC retention time is 966 s.
As for `COC(=O)c1ccc(Cl)cc1NC(=O)COc1nc(C)nc2ccccc12`, the RP-LC retention time was found to be 920 s.
For the compound `O=C(NCc1ccco1)c1c(O)c2cccnc2n(Cc2ccccc2)c1=O`, the RP-LC retention time is 1250 s.
In turn, `Cc1cccc(NC(=O)CN2C(=O)CCc3cc(S(=O)(=O)N4CCCCC4C)ccc32)c1C` (stereo not given) came in with an RP-LC retention time of 930 s.
In turn, `O=C(Nc1ccc(Cl)cc1)C1CCc2sc(C(=O)N3CCOCC3)cc2C1` (stereo not given) came in with an RP-LC retention time of 759 s.
`COc1cc(Cl)ccc1C(=O)N1CCN=C1N1CCN(c2ccccc2F)CC1` returned an RP-LC retention time of 749 s.
Compound `Cc1ccc(N2CCN(C(=O)c3cn4cc(Cl)ccc4n3)CC2)cc1` displayed an RP-LC retention time of 830 s.
`Cc1ccccc1-c1noc(-c2nc(-c3ccncc3)no2)n1` showed an RP-LC retention time of 1090 s.
Take `CCOCC(=O)Nc1ccc2c(c1)Sc1ncccc1C(=O)N2CC`: the RP-LC retention time was 697 s.
`Cc1cccc(N2CCN(c3cc(C(=O)O)c4cc(NC(=O)C(C)C)ccc4n3)CC2)c1C` returned an RP-LC retention time of 732 s.
`CC(C)NC(=O)c1ccc(OCC2CCN(C(=O)CC(C)(C)C)CC2)cc1` displayed an RP-LC retention time of 875 s.
For the compound `O=C1CCC2(CNC(=O)c3cnccn3)CCCC=C2N1` (stereo not given), the RP-LC retention time was found to be 623 s.
For `CCOCC(=O)N1CCC(Oc2nccnc2N2CCOCC2)C1` (stereo not given), the RP-LC retention time was 640 s.
`COC(=O)c1cc2c(=O)n(Cc3ccco3)ccc2nc1C`: the RP-LC retention time stood at 747 s.
With `Cc1cccc(CNC(=O)CN2CCN(Cc3ccc(F)cc3Cl)C2=O)c1` the figure was 889 s; with `O=C(CCCn1nnc2cc(S(=O)(=O)N3CCCC3)ccc21)N1CCCc2ccccc21`, 873 s.
With `COCc1c(C(=O)O)nnn1-c1ccc(C(C)C)cc1` the figure was 825 s; with `CCOc1ccc(-c2noc(Cn3c(=O)n(CC4CCCO4)c(=O)c4ccccc43)n2)cc1OC` (stereo not given), 957 s.
As for `Cc1ccc(C(=O)Nc2ccc(S(N)(=O)=O)cc2)cc1Br`, the RP-LC retention time was 768 s.
Compound `CCc1nc2cc(-c3noc(Cc4ccc(OC)cc4Cl)n3)ccc2o1` registered an RP-LC retention time of 1190 s.
As for `Cc1sc(-c2cc(C(F)(F)F)on2)cc1S(=O)(=O)Nc1ccccc1F`, the RP-LC retention time turned out to be 1110 s.
With `N#Cc1c(NC(=O)CSc2nnc3ccccn23)sc2c1CCC2` the figure was 704 s; with `COc1nn(C)cc1C(=O)N1CCC(C(=O)Nc2ccc(-n3cnnn3)cc2)CC1`, 600 s.
With `O=C(Cn1ccc2ccc(N3CCOCC3)nc21)NCc1cccc(Br)c1` the figure was 918 s; with `COCC1CN(C(=O)c2ccco2)CCC1(F)F` (stereo not given), 759 s; with `O=C(c1cccc(N2CCCS2(=O)=O)c1)N1CCN(c2ccccn2)CC1`, 578 s.
As to `CCc1sc(NC(=O)C2CC(=O)N(CCc3c[nH]c4ccc(Cl)cc34)C2)nc1-c1ccccc1` (stereo not given), the RP-LC retention time came to 1060 s.
Take `Cc1ccc(-c2csc(-c3cccn3CC(=O)N(C)Cc3ccco3)n2)cc1`: the RP-LC retention time was 1170 s.
Take `COc1cccc(NC(=O)C2CCN(c3c(C)n(C)c(=O)n(C)c3=O)CC2)c1`: the RP-LC retention time is 769 s.
Next, `CC1(C(=O)NC2CCN(c3ccc(=O)n(CCOc4ccccc4)n3)C2)CCCCC1` (stereo not given): 906 s; `CCOc1ccc(-c2cc3c(=O)n(Cc4nc(-c5ccc(Cl)cc5)no4)ncn3n2)cc1`: 1140 s; `O=C(Cc1cccc(F)c1)N1CCOc2ccccc2C1`: 844 s.

Source of the values: the METLIN SMRT retention time set (Domingo-Almenara et al. 2019).
